The results in this text go back to ChEMBL document CHEMBL5537179, “Combination Therapy and Dual-Target Inhibitors Based on LSD1: New Emerging Tools in Cancer Therapy” (J Med Chem, 2024).

Series [1] is described as follows: Cmax in CD-1 mouse at 2 mg/kg, iv. To be noted: in vivo. The format is ADME, organism-based.
A short description of series [2]: Oral bioavailability in mouse. Type of series: ADME, organism-based. To be noted: in vivo.
A short description of series [3]: Half life in CD-1 mouse at 2 mg/kg, iv. The format is ADME, organism-based. The following applies: in vivo.
The target of series [4] is T1, Histone deacetylase 1 (Homo sapiens, UniProt Q13547). Nature of the series: Inhibition of human recombinant HDAC1 using fluorogenic HDAC substrate preincubated for 30 mins followed by substrate addition and measured after 15 mins by fluorescence based assay.
In series [5] the target is T2, Lysine-specific histone demethylase 1A (Homo sapiens, UniProt O60341). Nature of the series: Inhibition of LSD1 (unknown origin) at 10 uM relative to control.
Series [6] deals with T2, Lysine-specific histone demethylase 1A. Briefly: Inhibition of human LSD1 by luminescence assay.
Series [7] can be described thus: Half life in human plasma. Type of series: ADME, cell-free.
In series [8] the target is DCN1-like protein 1 (Homo sapiens, UniProt Q96GG9). Briefly: Inhibition of DCN1 (unknown origin) by TR-FRET analysis. In general terms: In TR-FRET formats the signal depends on donor and acceptor labels being close together.
The test system of series [9] is Leukemia cell. Briefly: Antitumor activity against human Leukemia cells assessed as reduction in cell growth incubated for 72 hrs by MTT assay. The format is functional, cell-based. On the technique in general: Tetrazolium dyes change colour on reduction, which living cells bring about.
Series [10] can be described thus: Oral bioavailability in BALB/c mouse at 5 mg/kg measured after 24 hrs by LC-MS/MS analysis. Type of series: ADME, organism-based. The following applies: in vivo.
Series [11] in a line: Half life in BALB/c mouse plasma at 5 mg/kg, ip measured after 24 hrs by LC-MS/MS analysis. Type of series: ADME, organism-based.
Series [12] has as its target T2, Lysine-specific histone demethylase 1A.
For series [13], the target named is T1, Histone deacetylase 1. Briefly: Inhibition of HDAC1 (unknown origin).
For series [14], the target named is Spermine oxidase (Homo sapiens, UniProt Q9NWM0). Briefly: Inhibition of SMOX (unknown origin) using spermine as substrate preincubated for 1 hr followed by substrate addition and measured after 20 mins by luminometer analysis.
Series [15] addresses Lysine-specific demethylase 6A (Homo sapiens, UniProt O15550). Briefly: Inhibition of human UTX using Biotin-KAPRKQLATKAARK(me3)SAPATGG as substrate by MALDI-TOF analysis.
In series [16] the target is Tubulin. Nature of the series: Inhibition of tubulin polymerization (unknown origin) by fluorescence based assay. Type of series: protein-complex assay, Homo sapiens.
Series [17] deals with T2, Lysine-specific histone demethylase 1A. Briefly: Inhibition of human LSD1 expressed in Escherichia coli Rosetta (DE3) cells using H3K4me2 peptide as substrate and measured after 1 hr by fluorescence based analysis.
The target in series [18] is T3, Bromodomain-containing protein 4 (Homo sapiens, UniProt O60885). Nature of the series: Inhibition of human BRD4 BD2 by TR-FRET assay.
Series [19] has as its target T3, Bromodomain-containing protein 4. Briefly: Inhibition of human BRD4 BD1 by TR-FRET assay.
In series [20] the test system is Kasumi 1. Nature of the series: cells. The following applies: Homo sapiens, Kasumi 1, 168 h.
Series [21] can be described thus: Tmax in human at 5 mg/kg, po. Type of series: ADME, organism-based. To be noted: in vivo.
Series [22] in a line: Cmax in human at 5 mg/kg, po. The format is ADME, organism-based. To be noted: in vivo.
The nature of series [23]: in vitro. To be noted: human, THP-1 cells.
Series [24] concerns MV4-11. Briefly: cells. The following applies: Homo sapiens, MV4-11, 72 h.

SMILES strings stand for the structures. Where only a bound is given, the exact number is not on record here.

T1 sequence (Q13547 whole entry): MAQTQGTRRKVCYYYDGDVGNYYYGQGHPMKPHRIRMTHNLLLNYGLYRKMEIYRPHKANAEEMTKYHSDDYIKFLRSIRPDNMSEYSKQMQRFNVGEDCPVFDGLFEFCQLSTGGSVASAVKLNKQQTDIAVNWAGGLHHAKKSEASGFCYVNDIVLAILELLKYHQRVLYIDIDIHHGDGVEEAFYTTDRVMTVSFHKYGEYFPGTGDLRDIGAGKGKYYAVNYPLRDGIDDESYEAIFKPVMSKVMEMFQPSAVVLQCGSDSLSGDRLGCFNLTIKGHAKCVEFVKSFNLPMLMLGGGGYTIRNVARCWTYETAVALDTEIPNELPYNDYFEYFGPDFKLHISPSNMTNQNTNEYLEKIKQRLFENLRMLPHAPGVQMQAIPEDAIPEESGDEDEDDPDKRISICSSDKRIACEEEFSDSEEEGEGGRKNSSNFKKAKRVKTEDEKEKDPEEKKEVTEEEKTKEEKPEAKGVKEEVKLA
Sequence of Lysine-specific demethylase 6A (O15550 whole entry): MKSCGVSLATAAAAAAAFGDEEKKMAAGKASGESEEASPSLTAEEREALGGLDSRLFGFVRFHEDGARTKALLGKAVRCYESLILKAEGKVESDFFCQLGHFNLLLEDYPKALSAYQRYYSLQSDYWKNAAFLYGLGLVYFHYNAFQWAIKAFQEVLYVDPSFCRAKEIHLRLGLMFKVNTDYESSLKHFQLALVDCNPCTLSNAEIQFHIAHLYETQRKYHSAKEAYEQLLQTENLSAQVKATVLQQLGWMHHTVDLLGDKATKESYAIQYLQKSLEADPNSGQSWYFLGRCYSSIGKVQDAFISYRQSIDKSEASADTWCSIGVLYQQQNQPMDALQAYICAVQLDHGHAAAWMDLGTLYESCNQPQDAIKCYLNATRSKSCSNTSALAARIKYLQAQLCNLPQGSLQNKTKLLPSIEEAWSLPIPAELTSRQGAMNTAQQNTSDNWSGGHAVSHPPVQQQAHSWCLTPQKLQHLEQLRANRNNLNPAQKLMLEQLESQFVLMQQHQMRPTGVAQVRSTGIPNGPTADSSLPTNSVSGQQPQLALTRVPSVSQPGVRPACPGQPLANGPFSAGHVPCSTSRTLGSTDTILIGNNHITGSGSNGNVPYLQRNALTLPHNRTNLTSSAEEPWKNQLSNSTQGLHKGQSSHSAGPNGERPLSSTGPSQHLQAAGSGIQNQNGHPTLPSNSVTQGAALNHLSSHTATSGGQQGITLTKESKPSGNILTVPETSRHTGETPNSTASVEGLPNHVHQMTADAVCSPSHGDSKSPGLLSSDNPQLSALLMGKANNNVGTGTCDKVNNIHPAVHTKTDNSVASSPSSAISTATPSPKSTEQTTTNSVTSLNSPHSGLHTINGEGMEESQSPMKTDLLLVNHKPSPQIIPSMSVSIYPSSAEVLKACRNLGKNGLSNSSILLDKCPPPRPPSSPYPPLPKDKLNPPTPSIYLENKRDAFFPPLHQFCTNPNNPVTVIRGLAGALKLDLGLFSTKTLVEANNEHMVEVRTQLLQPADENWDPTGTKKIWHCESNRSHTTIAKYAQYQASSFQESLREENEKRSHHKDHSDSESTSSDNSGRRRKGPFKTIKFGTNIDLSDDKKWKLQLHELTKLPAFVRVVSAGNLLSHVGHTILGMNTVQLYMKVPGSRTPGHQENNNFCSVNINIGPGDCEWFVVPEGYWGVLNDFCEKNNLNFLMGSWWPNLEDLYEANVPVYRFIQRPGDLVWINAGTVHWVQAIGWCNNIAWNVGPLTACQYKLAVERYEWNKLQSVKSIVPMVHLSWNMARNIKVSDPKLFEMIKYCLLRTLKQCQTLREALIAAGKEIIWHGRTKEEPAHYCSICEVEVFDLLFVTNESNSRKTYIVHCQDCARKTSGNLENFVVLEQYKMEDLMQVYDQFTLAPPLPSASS
Sequence of DCN1-like protein 1 (Q96GG9 whole entry): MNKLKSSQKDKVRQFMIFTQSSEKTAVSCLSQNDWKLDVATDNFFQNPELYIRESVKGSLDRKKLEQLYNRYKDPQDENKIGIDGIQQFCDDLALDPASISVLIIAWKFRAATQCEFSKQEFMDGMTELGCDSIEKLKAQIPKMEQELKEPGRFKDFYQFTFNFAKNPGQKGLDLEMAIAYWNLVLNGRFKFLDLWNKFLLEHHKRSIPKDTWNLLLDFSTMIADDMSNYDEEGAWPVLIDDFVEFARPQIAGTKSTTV
Sequence of Spermine oxidase (Q9NWM0 whole entry): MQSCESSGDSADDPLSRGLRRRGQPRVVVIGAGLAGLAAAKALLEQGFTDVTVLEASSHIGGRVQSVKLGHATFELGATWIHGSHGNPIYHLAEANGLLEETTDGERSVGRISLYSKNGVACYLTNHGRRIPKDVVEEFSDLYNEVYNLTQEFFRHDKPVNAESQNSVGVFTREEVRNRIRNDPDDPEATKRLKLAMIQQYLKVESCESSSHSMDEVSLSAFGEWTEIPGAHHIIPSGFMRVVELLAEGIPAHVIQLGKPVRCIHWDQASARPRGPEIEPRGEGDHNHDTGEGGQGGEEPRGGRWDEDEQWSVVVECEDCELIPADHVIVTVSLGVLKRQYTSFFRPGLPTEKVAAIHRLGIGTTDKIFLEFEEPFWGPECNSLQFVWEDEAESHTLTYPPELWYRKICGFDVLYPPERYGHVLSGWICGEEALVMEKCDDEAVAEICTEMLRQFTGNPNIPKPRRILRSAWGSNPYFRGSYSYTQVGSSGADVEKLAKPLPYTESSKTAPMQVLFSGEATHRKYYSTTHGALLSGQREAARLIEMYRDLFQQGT

On to `O=C(O)c1ccc(CN2CCC(CN[C@@H]3C[C@H]3c3ccccc3)CC2)cc1` [GSK2879552], for which the concentration in series [1] peaked (Cmax) at 720 ng/mL. Further, the bioavailability – broadly, the share of a dose that reaches the circulation, judged against a reference dose that is usually intravenous – in series [2] stood at 59.2%. Besides, the half-life (commonly the time in which the quantity being followed falls by half) in series [3] was 1.9 h.
Regarding `NC1CC1c1ccc(NC(=O)CCCc2ccccc2)cc1` (stereo not given), the IC50 (usually the concentration that gives 50% inhibition) in [4] was above 30000 nM.
Consider `Nc1n[nH]c(NCc2ccccc2Oc2ccc(-c3ccccc3)cc2)n1`, for which, in [5], the inhibition (in general, the change of the read-out against control, counted positive when it falls) worked out at 52.1%.
For `COC(=O)/C=C/c1ccc(CN(C(=O)OC(C)(C)C)C2CC2c2ccc(F)cc2)cc1` (stereo not given), the IC50 in [6] was determined as 50 nM.
In the case of `Nc1nnc(CN[C@@H]2C[C@H]2c2ccc(OCc3ccccc3)cc2)o1`, the half-life in [7] was 22 h.
In series [8], `CN(C)CCn1nnnc1Sc1ccnc2nc(SCc3ccc(Br)cc3)nn12` showed an IC50 of 14.8 nM.
For `N[C@H]1CC[C@H](N[C@@H]2C[C@H]2c2ccccc2)CC1`, the EC50 (in general, the concentration that produces a half-maximal response) in [9] amounted to 0.1 nM. In series [10], this molecule displayed a bioavailability of 77%. This molecule showed a half-life in series [11] of 10 h.
For the molecule `Nc1ccccc1NC(=O)c1ccc(CCCC(=O)Nc2ccc(C3CC3N)cc2)cc1` (stereo not given), the IC50 in series [12] and in series [13] was 300 nM in each case.
In turn, `C=C/C=C/c1cccc(Oc2cccc(Cl)c2CNc2nc(N)n[nH]2)c1/C=C/C=C` registered an IC50 in series [14] of 148000 nM.
For the molecule `NC1CC1c1ccc(NC(=O)c2ccc(O)c3ncccc23)cc1` (stereo not given), the IC50 is 27000 nM in [15] and below 1000 nM in [12].
Regarding `O=S1(=O)CCCN(S(=O)(=O)c2ccc(-c3cnc(C4CC4)o3)cc2)c2ccccc21`, the IC50 in [16] came to 3100 nM; in [17], 2800 nM.
Consider `C/C(=N\NC(=O)c1cccc(S(=O)(=O)N2CCOCC2)c1)c1cc(Cl)ccc1O`, for which the results for the IC50 in series [18] and in series [19] were 33 nM and 77 nM, respectively.
In the case of `COc1ccc(-c2c(-c3ccc(C#N)c(F)c3)nc(N3CCC(N)CC3)n(C)c2=O)cc1F.O=S(=O)(O)c1ccccc1` [PULRODEMSTAT BESILATE], the values for the IC50 in [20] and in series [24] were 2 nM and 1400 nM, respectively. The Tmax (usually the time from dosing to the highest level) in series [21] was found to be 4 h. For the same molecule, the Cmax (usually the highest concentration seen after dosing) in series [22] was found to be 19 ng/mL. In addition, in [23], the IC50 at 72 h was 7 nM.
